# PMC3498355, “Isomeric Mono-, Di-, and Tri-Bromobenzo-1H-Triazoles as Inhibitors of Human Protein Kinase CK2α” (PLoS ONE, 2012)
# Like-named read-outs stand apart in the source and are kept apart here.
# Experiments:
# protein kinase CK2 = conditions: cited from earlier work
# human CK2α = molecular target: T1, human CK2α (Homo sapiens, UniProt P68400); assay: CK2α activity, P81 filter isotopic assay (inhibition, IC50); assay type: biochemical
# T1 construct: CK2α was from KinaseDetect Aps; purchased KinaseDetect Aps
# Procedure: CK2α activity was monitored using the P81 filter isotopic assay. The reaction mixture contained 20 mM Tris-HCl, pH 7.5, 20 mM MgCl2, 20 µM DTT, 20 µM peptide substrate, 0.5 mM β-glycerol, 0.1 mM EGTA, 10 µM ATP (200–300 cpm/pmol) and CK2α (0.4 µg/µl). The reaction was initiated with enzyme in a total volume of 50 µl, and incubated at 30°C for 20 min. 10 µl of a reaction mixture was spotted onto a P81 filter. The filter papers were washed 3× with 0.6% phosphoric acid, once with 95% ethanol, then counted in a scintillation counter (Canberra-Packard).
# ATP, and Cmax and Cmin are the asymptotic values.
# [1] = design: method as in PMID 20734498, PMID 22632480; conditions: experimental, aqueous medium; cited from earlier work
# [2] = design: method as in PMID 20734498, PMID 22632480; conditions: cited from earlier work; for Cw (aqueous solubility): experimental
# [3] = design: method as in PMID 20734498, PMID 22632480; conditions: ab initio, calculated previously; cited from earlier work
# [4] = design: method as in PMID 20734498, PMID 22632480; conditions: ab initio, calculated previously; cited from earlier work; remark: listed apart in the source
# [5] = 10 µM ATP, 20 µM peptide substrate, pH 7.5, 30°C, 20 min
# [6] = acidic solution, compared with neutral pH
# T1 sequence (P68400 whole entry): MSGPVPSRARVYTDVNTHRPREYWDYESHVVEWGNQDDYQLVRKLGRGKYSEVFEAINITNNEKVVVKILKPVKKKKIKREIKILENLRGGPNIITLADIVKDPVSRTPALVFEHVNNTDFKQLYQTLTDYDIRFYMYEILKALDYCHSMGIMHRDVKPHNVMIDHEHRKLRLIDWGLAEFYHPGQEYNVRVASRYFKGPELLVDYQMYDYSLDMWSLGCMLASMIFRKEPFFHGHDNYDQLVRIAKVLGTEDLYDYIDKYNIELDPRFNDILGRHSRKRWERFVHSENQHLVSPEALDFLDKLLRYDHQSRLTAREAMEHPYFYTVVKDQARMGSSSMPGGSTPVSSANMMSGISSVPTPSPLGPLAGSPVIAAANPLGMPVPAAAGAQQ
structure (smiles),measurement,setting,value
"Clc1c(Cl)c(Cl)c2[nH]nnc2c1Cl [4,5,6,7-tetrachloro-benzotriazole]",activity against CK2 (in words),protein kinase CK2,moderate activity
"Cc1c(C)c(C)c2[nH]nnc2c1C [4,5,6,7-tetramethyl-benzotriazole]",activity against CK2 (in words),protein kinase CK2,"low, but detectable, activity"
"Brc1cc2[nH]nnc2c(Br)c1Br [4,5,6-Br3Bt]",IC50,human CK2α; [5],0.38 ± 0.02 µM
same,pKa (triazole proton dissociation),[1],5.91
same,solubility (in words),[2]; [6],visibly higher
same,Cw (aqueous solubility),[2],62.3 µM
same,solubility (in words),[2]; neutral pH,as low as for TBBt
same,ΔGdiss (free energy of proton dissociation),[3],52.3 kcal/mol
same,ΔGsolv (free energy of solvation of the anionic form),[4],-40.9 kcal/mol
"Brc1cc(Br)c2[nH]nnc2c1Br [4,5,7-Br3Bt]",IC50,human CK2α; [5],5.8 ± 0.9 µM
same,pKa (triazole proton dissociation),[1],5.38
same,Cw (aqueous solubility),[2],1040 µM
same,ΔGdiss (free energy of proton dissociation),[3],52.2 kcal/mol
same,ΔGsolv (free energy of solvation of the anionic form),[4],-41.9 kcal/mol
"Brc1ccc2[nH]nnc2c1Br [4,5-Br2Bt]",IC50,human CK2α; [5],10.6 ± 0.9 µM
same,pKa (triazole proton dissociation),[1],6.49
same,Cw (aqueous solubility),[2],499 µM
same,ΔGdiss (free energy of proton dissociation),[3],54.3 kcal/mol
same,ΔGsolv (free energy of solvation of the anionic form),[4],-46.8 kcal/mol
"Brc1cc(Br)c2nn[nH]c2c1 [4,6-Br2Bt]",IC50,human CK2α; [5],10 ± 2.2 µM
same,pKa (triazole proton dissociation),[1],6.38
same,Cw (aqueous solubility),[2],234 µM
same,ΔGdiss (free energy of proton dissociation),[3],54.2 kcal/mol
same,ΔGsolv (free energy of solvation of the anionic form),[4],-45.5 kcal/mol
"Brc1ccc(Br)c2[nH]nnc12 [4,7-Br2Bt]",IC50,human CK2α; [5],72 ± 11 µM
same,pKa (triazole proton dissociation),[1],5.84
same,Cw (aqueous solubility),[2],1980 µM
same,ΔGdiss (free energy of proton dissociation),[3],53.4 kcal/mol
same,ΔGsolv (free energy of solvation of the anionic form),[4],-48.0 kcal/mol
Brc1cccc2[nH]nnc12 [4-BrBt],IC50,human CK2α; [5],119 ± 10 µM
same,pKa (triazole proton dissociation),[1],7.08
same,Cw (aqueous solubility),[2],3870 µM
same,ΔGdiss (free energy of proton dissociation),[3],56.7 kcal/mol
same,ΔGsolv (free energy of solvation of the anionic form),[4],-53.3 kcal/mol
"Brc1cc2nn[nH]c2cc1Br [5,6-Br2Bt]",IC50,human CK2α; [5],0.56 ± 0.02 µM
same,pKa (triazole proton dissociation),[1],6.93
same,solubility (in words),[2]; [6],visibly higher
same,Cw (aqueous solubility),[2],231 µM
same,solubility (in words),[2]; neutral pH,as low as for TBBt
same,ΔGdiss (free energy of proton dissociation),[3],55.8 kcal/mol
same,ΔGsolv (free energy of solvation of the anionic form),[4],-44.4 kcal/mol
Brc1ccc2nn[nH]c2c1 [5-BrBt],IC50,human CK2α; [5],26 ± 3 µM
same,pKa (triazole proton dissociation),[1],7.55
same,Cw (aqueous solubility),[2],2770 µM
same,ΔGdiss (free energy of proton dissociation),[3],58.1 kcal/mol
same,ΔGsolv (free energy of solvation of the anionic form),[4],-50.7 kcal/mol
"c1ccc2[nH]nnc2c1 [Bt, benzotriazole, reference compound]",inhibitory activity against CK2α (in words),human CK2α,totally inactive
same,IC50,human CK2α; [5],> 2000 µM
same,IC50,human CK2α; as stated in legend of Figure 5,> 2000 µM
same,pKa (triazole proton dissociation),[1],8.56
same,Cw (aqueous solubility),[2],196000 µM
same,ΔGdiss (free energy of proton dissociation),[3],59.5 kcal/mol
same,ΔGsolv (free energy of solvation of the anionic form),[4],-59.9 kcal/mol
"Brc1c(Br)c(Br)c2[nH]nnc2c1Br [TBBt, 4,5,6,7-tetrabromobenzotriazole, reference compound]",Cw (aqueous solubility),[2],218 µM
same,solubility (in words),[2]; neutral form of the ligand,very poorly soluble
same,ΔGdiss (free energy of proton dissociation),[3],49.7 kcal/mol
same,ΔGsolv (free energy of solvation of the anionic form),[4],-38.0 kcal/mol
"Brc1c(Br)c(Br)c2[nH]cnc2c1Br [TBBz, 4,5,6,7-tetrabromobenzimidazole]",Ki,protein kinase CK2,low µM and sub-µM range
same,activity relative to TBBt (fold less active),protein kinase CK2,4 fold
